Data on four compounds can be found in US8999295B2, “Technique for drug and gene delivery to the cell cytosol” (Brigham Young University, priority 2009, dated 2015).

A short description of data set [1]: Volume expansion ratio on liquid-to-vapor transformation. The conditions noted are these: at body temperature. The data set is classed as physicochemical.
The conditions of data set [2]: cited from earlier work.
For data set [3] the following is noted: at body temperature; cited from earlier work.

The structures appear in SMILES notation.

`FC(F)(F)C(F)(F)C(F)(F)C(F)(F)C(F)(F)F` [PFC5, perfluoropentane]: the “expansion ratio (liquid to vapor volume)” value in data set [1] is “approximately 103”. Consider `O=O` [oxygen], for which, in data set [2], the solubility in water was 1.32 mol/m^3. In the case of `FC(F)(F)C(F)(F)C(F)(F)C(F)(F)C(F)(F)C(F)(F)F` [perfluorohexane], in data set [1], the “expansion ratio (liquid to vapor volume)” value is ~259. The solubility in water in data set [2] is given as 2.7×10^−4 mol/m^3. Also, the vapor pressure in data set [3] is listed as 0.48 atm. For the compound `FC(F)(F)C(F)(F)C(F)(F)F` [perfluoropropane], the solubility in water in data set [2] is 0.19 mol/m^3.
